Laboratory results published in PMC4742970 (Nature Communications, 2016).

Columns and labels:
Msh2–Msh3 (Msh2HA–Msh3) [1] = biological target: T1, Msh2–Msh3 (Msh2HA–Msh3) (Saccharomyces cerevisiae, UniProt P25336+P25847); test: single-molecule diffusion on DNA curtains (TIRF); assay type: binding; settings: 1 mM ADP, 50 mM NaCl, 40 mM Tris-HCl pH 8; functional effect on diffusion along homoduplex DNA
T1 construct: heterodimer overexpressed in and purified from yeast; labelled with anti-HA quantum dots in single-molecule tests
T1 sequence (P25847 1-964): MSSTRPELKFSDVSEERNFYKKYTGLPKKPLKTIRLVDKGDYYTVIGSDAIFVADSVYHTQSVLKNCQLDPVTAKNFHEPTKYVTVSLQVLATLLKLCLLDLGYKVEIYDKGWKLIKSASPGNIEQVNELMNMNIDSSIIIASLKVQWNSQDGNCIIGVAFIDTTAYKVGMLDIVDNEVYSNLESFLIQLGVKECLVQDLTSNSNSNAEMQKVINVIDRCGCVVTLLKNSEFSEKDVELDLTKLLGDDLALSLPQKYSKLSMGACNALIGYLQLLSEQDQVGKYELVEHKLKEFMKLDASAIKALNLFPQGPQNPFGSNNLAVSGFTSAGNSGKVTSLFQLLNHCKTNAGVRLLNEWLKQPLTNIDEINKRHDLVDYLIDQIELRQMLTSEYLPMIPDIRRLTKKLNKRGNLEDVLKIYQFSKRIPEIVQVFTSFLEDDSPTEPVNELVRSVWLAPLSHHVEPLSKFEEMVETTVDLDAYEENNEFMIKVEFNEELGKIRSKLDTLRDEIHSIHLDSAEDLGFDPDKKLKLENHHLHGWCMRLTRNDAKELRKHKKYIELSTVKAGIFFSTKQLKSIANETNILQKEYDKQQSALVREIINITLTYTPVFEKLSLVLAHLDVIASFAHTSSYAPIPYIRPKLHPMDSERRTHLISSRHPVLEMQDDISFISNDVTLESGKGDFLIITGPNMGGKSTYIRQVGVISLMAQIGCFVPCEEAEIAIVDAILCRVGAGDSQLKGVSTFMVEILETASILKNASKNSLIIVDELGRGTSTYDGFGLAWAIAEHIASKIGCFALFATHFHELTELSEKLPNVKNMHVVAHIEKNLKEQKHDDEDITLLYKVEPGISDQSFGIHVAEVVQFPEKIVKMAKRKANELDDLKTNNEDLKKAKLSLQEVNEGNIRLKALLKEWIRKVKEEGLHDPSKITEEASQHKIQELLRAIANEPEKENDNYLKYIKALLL
T1 sequence (P25336 1-1018): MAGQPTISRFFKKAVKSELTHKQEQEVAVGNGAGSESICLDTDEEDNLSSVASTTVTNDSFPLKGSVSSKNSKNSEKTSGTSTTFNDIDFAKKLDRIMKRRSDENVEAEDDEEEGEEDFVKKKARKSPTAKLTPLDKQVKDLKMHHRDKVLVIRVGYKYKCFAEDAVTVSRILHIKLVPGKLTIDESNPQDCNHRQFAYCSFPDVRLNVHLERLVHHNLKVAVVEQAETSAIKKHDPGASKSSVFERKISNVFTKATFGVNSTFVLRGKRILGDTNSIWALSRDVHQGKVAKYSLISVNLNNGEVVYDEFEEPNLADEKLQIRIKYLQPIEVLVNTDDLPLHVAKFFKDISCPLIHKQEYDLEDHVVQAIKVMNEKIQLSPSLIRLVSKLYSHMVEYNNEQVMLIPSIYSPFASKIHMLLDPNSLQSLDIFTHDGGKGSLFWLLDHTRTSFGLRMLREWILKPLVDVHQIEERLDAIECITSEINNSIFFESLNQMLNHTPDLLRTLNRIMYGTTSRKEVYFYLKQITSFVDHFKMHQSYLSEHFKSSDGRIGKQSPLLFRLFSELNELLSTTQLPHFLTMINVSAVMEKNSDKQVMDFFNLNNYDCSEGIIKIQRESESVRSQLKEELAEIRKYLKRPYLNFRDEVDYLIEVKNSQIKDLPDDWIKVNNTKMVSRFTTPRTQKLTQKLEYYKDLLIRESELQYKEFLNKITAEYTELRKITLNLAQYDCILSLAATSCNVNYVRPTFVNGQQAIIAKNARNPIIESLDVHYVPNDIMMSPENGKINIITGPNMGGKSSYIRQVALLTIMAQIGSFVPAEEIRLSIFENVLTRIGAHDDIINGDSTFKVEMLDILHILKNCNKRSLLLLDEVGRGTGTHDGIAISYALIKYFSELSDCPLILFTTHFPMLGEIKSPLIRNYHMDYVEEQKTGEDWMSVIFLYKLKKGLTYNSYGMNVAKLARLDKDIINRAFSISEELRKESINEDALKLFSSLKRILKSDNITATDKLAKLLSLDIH

Msh2–Msh3 (Msh2HA–Msh3) [2] = biological target: T1, Msh2–Msh3 (Msh2HA–Msh3); test: ATPase assay, gamma-32P-ATP, PEI-cellulose TLC; assay type: biochemical; settings: 20-250 μM ATP, 2 mM MgCl2, pH 7.5, 30 °C, 100 nM protein, with or without 2 μM DNA
Msh2(HA)-Msh3 = Msh2(HA)-Msh3 (Saccharomyces cerevisiae, UniProt P25847;P25336 1-964;1-1018); test: EMSA; no antibody or QD; EMSA: 20 mM HEPES pH 7.5, 100 mM NaCl, 1 mM DTT, 40 ug/ml BSA, 2 mM MgCl2, RT; curtains: 40 mM Tris-HCl pH 8, 25-150 mM NaCl, 2 mM MgCl2, 1-2 mM DTT, 0.2 mg/ml

## Nc1ncnc2c1ncn2[C@@H]1O[C@H](COP(=O)(O)OP(=O)(O)O)[C@@H](O)[C@H]1O [ADP]
Msh2–Msh3 (Msh2HA–Msh3) [1]
  single-molecule diffusion on DNA curtains (TIRF): Here we show that ADP and ATP also alter the interactions of the yeast Msh2–Msh3

## Nc1ncnc2c1ncn2[C@@H]1O[C@H](COP(=O)(O)OP(=O)(O)OP(=O)(O)O)[C@@H](O)[C@H]1O [ATP]
Msh2–Msh3 (Msh2HA–Msh3) [2]
  ATPase assay, gamma-32P-ATP, PEI-cellulose TLC: Gel shift and ATPase assays indicated that the QD-tagged Msh2–Msh3 retained biochemical activities

B1: 3'-ssDNA flap LS1/LS3/LS16 (mixed)
DNA 1: CACGCTACCGAATTCTGACTTGCTAGGACATCTTTGCCCACGTTGACCC
DNA 2: TCGATAGTCTCTAGATAGCATGTCCTAGCAAGTCAGAATTCGGTAGCGTG
DNA 3: GCTATCTAGAGACTATCGA
Msh2(HA)-Msh3
  binding result: binds
